Measurements as given in US11471502B2, “Neuroprotective peptide” (UNIVERSITY COLLEGE CARDIFF C[…], priority 2017, dated 2022).

How the values were obtained:
ERK1/2 = assay: Ex vivo acute striatal slices, glutamate stimulation, Western blot for phospho ERK; type: cell-based, mouse; settings: 50 μM peptide; for ERK2 activation (phosphorylation of ERK2) / pERK1 (phospho-ERK1) level: glutamate 100 μM 10 min, vs scramble
Procedure: a) RB5 peptide selectively promoted activation of ERK2. Acute striatal slices either pre-treated with Scramble (SCR) or RB5 peptide (50 μM) and then stimulated 10 minutes with glutamate (GLU) (100 μM) or vehicle were analysed in Western blot (left panel) and probed with anti phospho ERK antibodies (p44^ERK1 and p42^ERK2) and anti ERK1/2 antibody. GAPDH was used as loading control. […] No changes were detected in the total ERK1 and ERK2 levels. GAPDH was used as loading control. […] Mice injected with a single dose of CPP-SCR or CPP-RB5 peptides (20 mg/kg, i.p.) were rapidly perfused 1 h later and brains were dissected and further analysed for IHC and immunofluorescence. Representative photomicrographs of pERK1/2, pMSK, pAch3, pELK1 and c-Fos expression in the striatum. […] Two-way ANOVA Bonferroni post hoc comparison: one black star, p<0.05, two black stars, p<0.01, one white star, p<0.001. p) Dose response curve of RB5 peptide for ERK activation. 200 μm thick striatal slices were freshly prepared from 2-month old mice and transferred into a perfusion chamber for 1 h at 32° C. Slices were pre-treated with different doses of RB5 or scrambled control. After 1 h, slices for each dose was fixed in PFA 4% for 15 min. 18 μm cryo-sections were processed for immunohistochemistry with anti-phospho p44/p42 MAP kinase. Neuronal quantification was performed with ImageJ software by counting the number of phospho-ERK positive cells in each slice. The level of activation is expressed on the Y-axis as arbitrary units (AU). Doses are reported in a logarithmic scale (Log 10) on the X-axis. The EC50 was calculated using GraphPad Prism software.
Adult mice were anesthetized and decapitated. The brains were rapidly removed from the skull and put on a cool glass plate filled with ice-cold sucrose-based dissecting solution (87 mM NaCl, 2.5 mM KCl, 7 mM MgCl2, 1 mM NaH2PO4, 75 mM sucrose, 25 mM NaHCO3, 10 mM D-glucose, 0.5 mM CaCl2), 2 mM kynurenic acid) and oxygenated with 95% O2 and 5% CO2 and subsequently mounted on the vibratome stage (Vibratome, VT1000S-Leica Microsystems). 200 μm-thick slices were cut and transferred into the brain slice chamber (Brain slice chamber-BSC1—Scientific System design Inc., Mississauga, ON, Canada) and allowed to recover for 1 h at 32° C., with a constant perfusion of carboxygenated artificial cerebrospinal fluid (ACSF) in the presence of the Scramble or RB5 peptide (50 μM). Brain slice stimulation was performed with 100 μM glutamate in the chamber for 10 min. After rapid fixation in 4% PFA for 15 min at room temperature, slices were rinsed and the cryoprotected overnight at 4° C. in sucrose solution. On the following day slices were further cut in thinner slices of 18 μm using cryostat (Leica CM1850) and collected onto SuperFrost Plus slides (Thermo Scientific).
Mice were sacrificed by decapitation and brain slices were freshly prepared according to the above ex-vivo system protocol and incubated in a perfusing chamber with the peptides. After stimulation with glutamate or saline, slices were then homogenised and used for protein determination using a DC Protein Assay kit (Bio-rad). Equal amounts of protein (5 or 10 μg, depending on the target protein) for each sample were loaded onto 12% polyacrylamide gels. Proteins were separated onto SDS/PAGE and transferred to nitrocellulose membranes. After incubation for 1 hr in blocking solution (TBS1λ, 0.1% Tween), membranes were incubated overnight with anti ERK2 (K-23):sc-153 (1:1000 Santa Cruz Biotechnology, Dallas, Tex.), phospho-p42-44 Map Kinase (Thr202/[…]) (1:1000 Cell Signalling Technology, Danvers, Mass.) and anti-GAPDH (FL-335): sc-25778 (1:1000 Santa Cruz Biotechnology, Dallas, Tex.). The immunoblots were analysed with ImageJ software to measure the optical density of the bands. The levels of each protein were normalized on the GAPDH loading control.

Lister Hooded rats = assay: Contextual Fear Conditioning after infusion into dorsal hippocampus; type: in vivo, rat
Procedure: (*p<0.05, **p<0.01, FLSD test).
The subjects were adult male Lister hooded rats weighing 280-350 g. They were housed in pairs, in holding rooms maintained at 21° C. on a reversed-light cycle (12 h light/dark; lights on at 10:00 P.M.). All experiments were conducted in the dark period of the rats. Food and water were freely available throughout the experiment. Steel double guide cannulae aimed at the dorsal hippocampus (AP−3.50, relative to bregma) were surgical implanted under anaesthesia at least one week prior to behavioural training and microinfusions. Bilateral infusions with either 2 mg/ml CPP-SCR or CPP-RB5, 20 min prior to conditioning (pH 7.0, […]) via the chronically indwelling cannula were carried out in awake rats using a syringe pump, connected to injectors (28 gauge, projecting 1 mm beyond the guide cannulae) by polyethylene tubing.
Conditioning was performed in one of two distinct contexts. These contexts were designed to differ in a number of distinctive characteristics including size, spatial location, odour and lighting.
Rat protocol: during the 3 min conditioning training trial, rats received a single scrambled footshock (0.5 mA for 2 s) 2 min after being placed into one of the conditioning contexts (CtxA). All rats were returned to the home cages after conditioning. Retrieval tests 3 hr (post-retrieval short-term memory, STM), or 2 days (long-term memory, LTM) after recall again consisted of exposing the rat to the conditioning context for 2 min.
(§1) For all protocols, freezing behavior served as a measure of conditioned fear to the context during the conditioning and retrieval tests of the behavioural procedures. This was video-recorded and quantified by an observer blind to the experimental group. One unit of freezing was defined as a continuous absence of movement other than that required for respiration in 1 s sampled every 10 s.

Tg2576 mice = assay: Contextual Fear Conditioning in Tg2576 mice; type: in vivo, mouse; settings: 20 mg/kg i.p. before CFC training, retention 24 h later
Procedure: 7 months old Tg2576 mice and WT mice were treated with either CPP-SCR or CPP-RB5 (20 mg/kg, i.p.) before Contextual Fear Conditioning (CFC) training and tested for memory retention 24 h later. Contextual Fear (CF) memory impairment in Tg2576 mice is fully rescued by RB5 treatment. Values are reported as % of time spent freezing. Data are expressed as Mean±SEM. *p<0.05**p<0.01.
Mice protocol: after 120 sec of exploration, mice received 5 foot shocks (0.7 mA, 2-s duration, separated by 60-s intervals) delivered through the grid floor. Context Fear Memory was assessed 24 h later by returning mice for 5 min to the conditioning chamber and not delivering a foot shock.
as §1

[1] = 2 mg/ml infusion into dorsal hippocampus prior to CFC
[2] = 2 mg/ml bilateral dorsal CA1 infusion 20 min prior to conditioning

Row | Compound | total ERK1 and ERK2 levels (ERK1/2) | ERK2 activation (phosphorylation of ERK2) (ERK1/2) | pERK1 (phospho-ERK1) level (ERK1/2) | acquisition of contextual fear memory (Lister Hooded rats; [1]) | long-term fear memory (Lister Hooded rats; [1]) | Contextual Fear (CF) memory impairment (% of time spent freezing) (Tg2576 mice) | STM and LTM (freezing at 3 hr and 2 days after training) (Lister Hooded rats; [2]) | post footshock (postUS) freezing behaviour during fear conditioning (Lister Hooded rats; [2])
1 | GRKKRRQRRRPPQGGGGGEPRRTEGVGPGVPGEVEMVKGQPFDV (listed as Homo sapiens) [CPP-RB5] | no changes | selectively enhanced | equally increased | enhanced | stronger long-term fear memory | rescued already present memory impairments in aged Tg2576 mice back to WT levels | – | –
2 | CSCC[C@H](NC(=O)[C@H](CCC(=O)O)NC(=O)[C@@H](NC(=O)[C@H](CCC(=O)O)NC(=O)CNC(=O)[C@@H]1CCCN1C(=O)[C@@H](NC(=O)CNC(=O)[C@@H]1CCCN1C(=O)CNC(=O)[C@@H](NC(=O)CNC(=O)[C@H](CCC(=O)O)NC(=O)[C@@H](NC(=O)[C@H](CCCNC(=N)N)NC(=O)[C@H](CCCNC(=N)N)NC(=O)[C@@H]1CCCN1C(=O)[C@H](CCC(=O)O)NC(=O)CNC(=O)CNC(=O)CNC(=O)CNC(=O)CNC(=O)[C@H](CCC(N)=O)NC(=O)[C@@H]1CCCN1C(=O)[C@@H]1CCCN1C(=O)[C@H](CCCNC(=N)N)NC(=O)[C@H](CCCNC(=N)N)NC(=O)[C@H](CCCNC(=N)N)NC(=O)[C@H](CCC(N)=O)NC(=O)[C@H](CCCNC(=N)N)NC(=O)[C@H](CCCNC(=N)N)NC(=O)[C@H](CCCCN)NC(=O)[C@H](CCCCN)NC(=O)[C@H](CCCNC(=N)N)NC(=O)CNC(C)=O)[C@@H](C)O)C(C)C)C(C)C)C(C)C)C(=O)N[C@H](C(=O)N[C@@H](CCCCN)C(=O)NCC(=O)N[C@@H](CCC(N)=O)C(=O)N1CCC[C@H]1C(=O)N[C@@H](Cc1ccccc1)C(=O)N[C@@H](CC(=O)O)C(=O)N[C@@H](C(=O)O)C(C)C)C(C)C [RB5] | No changes | significantly higher | equally increased | – | – | fully rescued | increase in both STM and LTM | increase
